Drawing on patent publication US20220289679A1, “HETEROCYCLIC COMPOUND” (Takeda Pharmaceutical Company Limited, priority 2019, published 2022), this text covers inhibition for four molecules.

This test has as its target T1, human GCS (glucosylceramide synthase) (Homo sapiens, UniProt Q16739).
T1 construct: made in house; host or cells: Expi293F cells (transient expression; microsome fraction)
T1 sequence (Q16739 1-394): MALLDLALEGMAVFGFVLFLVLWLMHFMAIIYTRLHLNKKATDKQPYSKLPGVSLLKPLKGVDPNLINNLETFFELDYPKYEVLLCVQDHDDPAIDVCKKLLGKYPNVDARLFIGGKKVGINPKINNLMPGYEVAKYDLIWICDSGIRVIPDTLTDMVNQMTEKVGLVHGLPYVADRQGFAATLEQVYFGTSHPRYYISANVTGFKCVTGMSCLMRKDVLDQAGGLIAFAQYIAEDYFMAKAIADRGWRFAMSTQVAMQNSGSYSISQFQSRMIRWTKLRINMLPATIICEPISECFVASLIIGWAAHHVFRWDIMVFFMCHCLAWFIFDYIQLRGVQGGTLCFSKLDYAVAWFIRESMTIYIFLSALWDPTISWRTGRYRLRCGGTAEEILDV
Description: Glucosylceramide Synthase (GCS) Assay. The format is biochemical. To be noted: test compound 10 μM; microsome fraction of Expi293F cells expressing human GCS; 1.7 μM UDP-glucose, 3 μM C8 ceramide; room temperature 60 min; C8 glucosylceramide by Rapidfire MS/MS; read-out: GCS enzyme inhibitory rate at 10 μM (%). In outline:
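Enzyme source was a microsome fraction from Expi293F cells transiently expressing human GCS. Reaction ran 60 min at room temperature in 20 mM Tris pH 7.5 with 1.7 μM UDP-glucose (Km) and 3 μM liposomal C8 ceramide, compound at 10 μM final. C8 glucosylceramide quantified by RapidFire MS/MS; inhibition scaled between enzyme-free and DMSO controls.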
`CC(C)(O)c1ccc(NC(=O)c2cccn(-c3ccc(F)cc3OCC(F)(F)F)c2=O)cc1` [Example 42, 1-[4-fluoro-2-(2,2,2-trifluoroethoxy)phenyl]-N-[4-(2-hydroxypropan-2-yl)phenyl]-2-oxo-1,2-dihydropyridine-3-carboxamide]: the inhibition at 10 µM came out at 99%.

As to `CC(C)(C#N)c1ccc(NC(=O)c2cccn(-c3ccccc3OCC(F)(F)F)c2=O)cn1` [Example 88, N-[6-(2-cyanopropan-2-yl)pyridin-3-yl]-2-oxo-1-[2-(2,2,2-trifluoroethoxy)phenyl]-1,2-dihydropyridine-3-carboxamide], the inhibition at 10 µM amounted to 100%.

In the case of `CC(C)(O)c1ccc(NC(=O)c2ccnn(-c3ccccc3OCC(F)F)c2=O)cn1` [Example 134, 2-[2-(2,2-difluoroethoxy)phenyl]-N-[6-(2-hydroxypropan-2-yl)pyridin-3-yl]-3-oxo-2,3-dihydropyridazine-4-carboxamide], the inhibition at 10 µM stood at 94%.

As to `CC(C)(O)c1ccc(NC(=O)c2ccnn(-c3ccccc3OCC(F)(F)F)c2=O)cc1` [Example 127, N-[4-(2-hydroxypropan-2-yl)phenyl]-3-oxo-2-[2-(2,2,2-trifluoroethoxy)phenyl]-2,3-dihydropyridazine-4-carboxamide], the inhibition at 10 µM was 100%.
